Each compound was assayed against T1, PI3Kα kinase (Homo sapiens, UniProt P42336) (assay: PI3Ka Transcreener ADP assay (fluorescence polarization)). Settings: 10 μM ATP, 30 μmol/L lipid substrate; read-out: IC50, inhibition of PI3Kα kinase.
T1 construct: purchased Invitrogen PV4788
Format: biochemical
Description: Fluorescence polarization was used in this assay. The final conditions for kinase assay are 10 μM of ATP, 0.2 ng/μL of PI3Kα kinase, 30 μmol/L of lipid substrate and assay buffer (50 mmol/L of HEPES (pH 7.5), 100 mmol/L of NaCl, 1 mmol/L of EGTA, 3 mmol/L of MgCl2, 1 mmol/L of DTT and 0.03% CHAPS and 2% DMSO).
5 μL of test compounds in 10% DMSO and 10 μL of 0.5 ng/μL PI3K kinase (Invitrogen, PV4788) in assay buffer are put into a 96-well plate (Greiner, Cat. 675076), and then the reaction is started by the addition of 10 μL of 75 μmol/L PIP2, (PS Lipid Substrate Invitrogen, PV5100), and 25 μmol/L ATP mixture. After the mixture is incubated for 60 minutes at room temperature, 25 μL of transcreener Kinase Kit reagent—ADP Detection Mix—(Bellbrook Labs) is added, and the reaction is continued for an additional 1.5 hours. At the end, the plate is read in a Tecan Infinite F500 at excitation of 610 nm and emission of 670 nm.
A standard curve for ADP is obtained in a parallel way by replacing compound and PI3Kα kinase with DMSO and assay buffer, respectively. Different concentration of ADP, 0-10 μM, and ATP, 10-0 μM (ATP+ADP equal to 10 μM) are applied instead of a fixed concentration of ATP in this standard curve assay. Other conditions are the same as described above. The standard curve is plotted using Origin 8.0 software. The inhibition of test compound on ADP production is calculated based on ADP concentration from standard curve. IC50 is obtained using XLfit 2.0 software.

T1 sequence (P42336 whole entry): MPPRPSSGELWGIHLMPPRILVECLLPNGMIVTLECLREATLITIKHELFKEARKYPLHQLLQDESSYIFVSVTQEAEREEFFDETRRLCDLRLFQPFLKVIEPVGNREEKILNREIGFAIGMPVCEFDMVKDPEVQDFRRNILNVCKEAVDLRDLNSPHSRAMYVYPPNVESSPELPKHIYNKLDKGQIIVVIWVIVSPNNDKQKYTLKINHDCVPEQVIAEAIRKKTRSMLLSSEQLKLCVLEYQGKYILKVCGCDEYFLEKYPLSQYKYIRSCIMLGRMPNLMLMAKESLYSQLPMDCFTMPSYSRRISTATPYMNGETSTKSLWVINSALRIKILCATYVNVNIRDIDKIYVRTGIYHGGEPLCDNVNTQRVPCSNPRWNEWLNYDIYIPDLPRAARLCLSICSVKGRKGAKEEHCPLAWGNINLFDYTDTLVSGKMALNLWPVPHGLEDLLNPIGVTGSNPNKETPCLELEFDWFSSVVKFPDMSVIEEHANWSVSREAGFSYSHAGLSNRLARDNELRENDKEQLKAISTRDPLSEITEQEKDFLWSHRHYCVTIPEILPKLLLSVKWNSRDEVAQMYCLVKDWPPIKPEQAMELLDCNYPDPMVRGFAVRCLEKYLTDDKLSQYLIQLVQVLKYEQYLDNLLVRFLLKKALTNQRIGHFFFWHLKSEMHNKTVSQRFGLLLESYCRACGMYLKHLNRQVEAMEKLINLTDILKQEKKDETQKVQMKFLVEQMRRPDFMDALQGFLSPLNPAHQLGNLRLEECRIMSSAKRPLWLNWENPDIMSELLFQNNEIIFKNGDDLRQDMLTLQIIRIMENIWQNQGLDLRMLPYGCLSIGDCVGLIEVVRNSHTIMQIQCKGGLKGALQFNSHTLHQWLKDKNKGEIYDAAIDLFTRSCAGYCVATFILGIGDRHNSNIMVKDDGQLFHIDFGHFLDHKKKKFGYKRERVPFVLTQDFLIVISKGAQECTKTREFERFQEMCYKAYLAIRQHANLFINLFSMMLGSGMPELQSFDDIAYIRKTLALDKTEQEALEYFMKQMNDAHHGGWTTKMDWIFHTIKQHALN
T1 sequence (P27986 whole entry partner): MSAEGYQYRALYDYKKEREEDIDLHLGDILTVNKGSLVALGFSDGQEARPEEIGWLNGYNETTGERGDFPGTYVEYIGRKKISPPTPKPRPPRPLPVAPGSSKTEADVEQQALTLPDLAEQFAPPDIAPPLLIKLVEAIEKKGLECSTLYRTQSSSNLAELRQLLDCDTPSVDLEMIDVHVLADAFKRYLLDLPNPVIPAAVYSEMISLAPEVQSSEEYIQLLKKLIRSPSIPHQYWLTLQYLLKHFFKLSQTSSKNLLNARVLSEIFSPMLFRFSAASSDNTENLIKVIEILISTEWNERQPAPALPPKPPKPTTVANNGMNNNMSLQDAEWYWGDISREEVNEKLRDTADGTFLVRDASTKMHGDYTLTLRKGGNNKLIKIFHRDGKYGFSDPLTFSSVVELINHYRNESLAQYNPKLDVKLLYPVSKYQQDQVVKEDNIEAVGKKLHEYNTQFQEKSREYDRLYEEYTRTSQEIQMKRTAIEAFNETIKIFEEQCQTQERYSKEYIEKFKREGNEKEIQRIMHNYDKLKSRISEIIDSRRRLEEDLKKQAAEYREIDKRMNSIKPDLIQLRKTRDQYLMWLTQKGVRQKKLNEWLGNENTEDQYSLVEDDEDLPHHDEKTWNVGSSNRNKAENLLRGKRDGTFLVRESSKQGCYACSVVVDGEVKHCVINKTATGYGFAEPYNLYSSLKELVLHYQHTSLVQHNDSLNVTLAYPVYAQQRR

Row | IC50 | SMILES
1 | < 0.1 µM | Nc1ncc(-c2ccc3ncc4nnn(-c5cccc(Cl)c5)c4c3c2)cn1 [Compound 13]
2 | < 0.1 µM | Cc1nc2cnc3ccc(-c4cnc(N)c(C(F)(F)F)c4)nc3c2n1C1CCN(Cc2ccccn2)CC1 [Compound 128]
3 | < 0.1 µM | COc1cc(-c2ccc3ncc4nnc(-c5ccc(C(C)(C)C#N)cc5)n4c3c2)cnc1OC [Compound 76]
4 | < 0.1 µM | COc1ncc(-c2ccc3ncc4n[nH]c(=O)n4c3c2)cc1NS(=O)(=O)c1ccc(F)cc1F [Compound 163]
5 | < 0.1 µM | CC(C)(C#N)c1ccc(-n2nnc3cnc4ccc(-c5cnc(N)nc5)nc4c32)cc1 [Compound 18]
6 | < 0.1 µM | C=CC(=O)N1CCC(n2c(C)nc3cnc4ccc(-c5cnc(N)c(C(F)(F)F)c5)nc4c32)CC1 [Compound 140]
7 | < 0.1 µM | C/C=C/C(=O)N1CCC(n2c(C)nc3cnc4ccc(-c5cnc(N)c(C(F)(F)F)c5)nc4c32)CC1 [Compound 145]
8 | < 0.1 µM | COc1cc(-c2ccc3ncc4ncn(-c5ccc(C(C)(C)C#N)nc5)c4c3n2)cnc1OC [Compound 92]
9 | < 0.1 µM | N#Cc1ccc(-c2nnc3cnc4ccc(-c5cnc(N)c(C(F)(F)F)c5)cc4n23)cc1 [Compound 64]
10 | < 0.1 µM | Nc1ncc(-c2ccc3ncc4nnc(CN5CCCC5)n4c3c2)cc1C(F)(F)F [Compound 87]
11 | < 0.1 µM | CC(C)(C#N)c1ccc(-n2cnc3cnc4ccc(-c5cnc(N)nc5)nc4c32)cn1 [Compound 94]
12 | < 0.1 µM | COc1ncc(-c2ccc3ncc4nnc(-c5ccc(C(C)(C)C#N)cc5)n4c3c2)cc1N [Compound 74]
13 | < 0.1 µM | CC(C)(C#N)c1ccc(-n2cnc3nnc4ccc(-c5cnc(N)c(C(F)(F)F)c5)cc4c32)cc1 [Compound 183, 2-(4-(8-(6-amino-5-(trifluoromethyl)pyridin-3-yl)-1H-imidazo[4,5-c]cinnolin-1-yl)phenyl)-2-methylpropanenitrile]
14 | < 0.1 µM | C[C@H](O)C(=O)N1CCC(n2nnc3cnc4ccc(-c5cnc(N)c(C(F)(F)F)c5)cc4c32)CC1 [Compound 23]
15 | < 0.1 µM | CN1CCC(C(=O)N2CCC(n3nnc4cnc5ccc(-c6cnc(N)c(C(F)(F)F)c6)nc5c43)CC2)CC1 [Compound 36]
16 | < 0.1 µM | COc1ncc(-c2ccc3ncc4nncn4c3c2)cc1NS(=O)(=O)c1ccc(F)cc1F [Compound 161]
17 | < 0.1 µM | CC(C)(C#N)c1ccc(-c2nnc3cnc4ccc(-c5ccc6[nH]ncc6c5)cc4n23)cc1 [Compound 61]
18 | < 0.1 µM | COc1ncc(-c2ccc3ncc4nnc(C(=O)N5CCCC5)n4c3c2)cc1NS(=O)(=O)C1CC1 [Compound 167]
19 | < 0.1 µM | C[C@@H](O)C(=O)N1CCC(n2cnc3cnc4ccc(-c5cnc(N)c(C(F)(F)F)c5)nc4c32)CC1 [Compound 110]
20 | < 0.1 µM | COc1ncc(-c2ccc3ncc4nc(C)n(C5CCN(S(C)(=O)=O)CC5)c4c3n2)cn1 [Compound 139]
21 | < 0.1 µM | Cc1cc(-c2ccc3ncc4ncn(-c5ccc(C(C)(C)C#N)nc5)c4c3n2)cnc1N [Compound 90]
22 | < 0.1 µM | CC(=O)N1CCCC(c2nnc3cnc4ccc(-c5ccc6nc(N)sc6c5)cc4n23)C1 (stereo not shown) [Compound 84]
23 | < 0.1 µM | COc1ncc(-c2ccc3ncc4nnc(CN5CCCC5)n4c3c2)cc1NS(C)(=O)=O [Compound 174]
24 | < 0.1 µM | COCc1nnc2cnc3ccc(-c4cnc(OC)c(NS(=O)(=O)C5CC5)c4)cc3n12 [Compound 170]
25 | < 0.1 µM | Nc1ncc(-c2ccc3ncc4nnn(C5CCN(C(=O)C6(O)CC6)CC5)c4c3n2)cc1C(F)(F)F [Compound 39]
26 | < 0.1 µM | C[C@H](O)C(=O)N1CCC(n2nnc3cnc4ccc(-c5cnc6[nH]ccc6c5)nc4c32)CC1 [Compound 8]

Row | IC50 | SMILES
27 | < 0.1 µM | CC#CC(=O)N1CCC(n2c(C)nc3cnc4ccc(-c5cnc(N)c(C(F)(F)F)c5)nc4c32)CC1 [Compound 144]
28 | < 0.1 µM | Cc1nc2cnc3ccc(-c4cnc(N)c(C(F)(F)F)c4)nc3c2n1C1CCC(N2CCOCC2)CC1 (stereo not shown) [Compound 137]
29 | < 0.1 µM | Nc1ncc(-c2ccc3ncc4nnc(-c5ccc(F)cn5)n4c3c2)cc1C(F)(F)F [Compound 59]
30 | < 0.1 µM | CCCCC(=O)N1CCC(n2nnc3cnc4ccc(-c5cnc(N)c(C(F)(F)F)c5)nc4c32)CC1 [Compound 37]
31 | < 0.1 µM | CC(=O)N1CCC(n2nnc3cnc4ccc(-c5cnc(N)c(C(F)(F)F)c5)cc4c32)CC1 [Compound 15]
32 | < 0.1 µM | Cc1nc2cnc3ccc(-c4cnc(N)c(C(F)(F)F)c4)nc3c2n1C1CCN(CC(=O)N2CCOCC2)CC1 [Compound 124]
33 | < 0.1 µM | COc1ncc(-c2ccc3ncc4nccn4c3c2)cc1NS(=O)(=O)c1ccc(F)cc1F [Compound 173]
34 | < 0.1 µM | COc1ncc(-c2ccc3ncc4nnc(CN5CCCC5)n4c3c2)cc1NS(=O)(=O)c1ccccc1 [Compound 175]
35 | < 0.1 µM | COc1ncc(-c2ccc3ncc4nccn4c3c2)cc1NS(=O)(=O)C(F)(F)F [Compound 176]
36 | < 0.1 µM | CC(C)(C#N)c1ccc(-n2cnc3cnc4ccc(-c5cnc(N)c(C(F)(F)F)c5)nc4c32)cn1 [Compound 89]
37 | < 0.1 µM | C=CC(=O)N1CCC(n2nnc3cnc4ccc(-c5cnc(N)c(C(F)(F)F)c5)nc4c32)CC1 [Compound 28]
38 | < 0.1 µM | Cc1ccc(-c2ccc3ncc4nc(C)n(C5CCN(C(=O)[C@H](C)O)CC5)c4c3n2)cn1 [Compound 127]
39 | < 0.1 µM | COc1ncc(-c2ccc3ncc4nnc(CCN5CCOCC5)n4c3c2)cc1NS(C)(=O)=O [Compound 171]
40 | < 0.1 µM | CCOc1cc(-c2ccc3ncc4ncn(-c5ccc(C(C)(C)C#N)nc5)c4c3n2)cnc1N [Compound 108]
41 | < 0.1 µM | CC(C)C(=O)N1CCC(n2nnc3cnc4ccc(-c5cnc(N)c(F)c5)nc4c32)CC1 [Compound 31]
42 | < 0.1 µM | COc1ncc(-c2ccc3ncc4ncn(CCN5CCOCC5)c4c3n2)cc1NS(C)(=O)=O [Compound 177]
43 | < 0.1 µM | Cc1ccc(-c2ccc3ncc4ncn(C5CCN(CC(=O)N(C)C)CC5)c4c3n2)cn1 [Compound 100]
44 | < 0.1 µM | C[C@@H](O)C(=O)N1CCC(c2nnc3cnc4ccc(-c5ccc6nc(N)sc6c5)cc4n23)CC1 [Compound 81]
45 | < 0.1 µM | CS(=O)(=O)c1ccc(-c2nnc3cnc4ccc(-c5cnc(N)c(C(F)(F)F)c5)cc4n23)cc1 [Compound 71]
46 | < 0.1 µM | C[C@@H](O)C(=O)N1CCC(n2nnc3cnc4ccc(-c5cnc(N)c(C(F)(F)F)c5)cc4c32)CC1 [Compound 24]
47 | < 0.1 µM | N#Cc1ccc(-c2nnc3cnc4ccc(-c5ccc6nc(N)sc6c5)cc4n23)nc1 [Compound 73]
48 | < 0.1 µM | Nc1ncc(-c2ccc3ncc4nnn(C5CCN(C(=O)c6ccccc6)CC5)c4c3n2)cc1C(F)(F)F [Compound 41]
49 | < 0.1 µM | COc1ncc(-c2ccc3ncc4nnc(C)n4c3c2)cc1NS(=O)(=O)c1ccc(C)cc1 [Compound 179, N-(2-methoxy-5-(1-methyl-[1,2,4]triazolo[4,3-a]quinoxalin-8-yl)pyridin-3-yl)-4-methylbenzenesulfonamide]
50 | < 0.1 µM | C#Cc1cc(-c2ccc3ncc4ncn(C5CCN(C(=O)C6CC6)CC5)c4c3n2)cnc1N [Compound 112]
51 | < 0.1 µM | Nc1ncc(-c2ccc3ncc4nnn(C5CCN(CC6CC6)CC5)c4c3n2)cc1C(F)(F)F [Compound 20]
52 | < 0.1 µM | Nc1ncc(-c2ccc3ncc4ncn(C5CCN(CC(=O)N6CCOCC6)CC5)c4c3n2)cc1C(F)(F)F [Compound 97]

Source: patent publication US9181264B2, “Fused heteroaryls and their uses” (Hutchison MediPharma Limited, priority 2011, dated 2015)
